Results reported in patent US20130252917A1, “COMBINATION THERAPY OF 4-(3-(2H-1,2,3-TRIAZO-2-YL)PHENYLAMINO)-2-((1R,2S)-2-AMINOCYCLOHEXYLAMINO)PYRIMIDINE-5-CARBOXAMIDE AND FLUDARABINE” (priority 2010, published 2013).
Where two headings read alike, the source gives them in different places.

System: primary CLL cells
Test: tetrazolium-based cell viability assay (MTS) on primary CLL cells, Compound 1 with or without fludarabine
Parameters: species or system human
Settings: for IC50: Homo sapiens, CLL cell
Description: Fresh primary CLL cells from 42 CLL patients were purified using a Ficoll gradient. Purified cells were then added to wells (5×10^4 per well) containing 10% serum serum containing media and four serial dilutions of Compound 1 (ranging from 10 nM to 10 μM) with or without different concentrations of fludarabine (also ranging from 10 nM to 10 μM). […] The viability data were normalized to untreated controls and were used to calculate IC50 values. […] Comput. Biomed. Res. 199, 32(2): 145-160).

SMILES: NC(=O)c1cnc(N[C@@H]2CCCC[C@@H]2N)nc1Nc1cccc(-n2nccn2)c1 [Compound 1, 4-(3-(2H-1,2,3-triazol-2-yl)phenylamino)-2-((1R,2S)-2-aminocyclohexylamino)pyrimidine-5-carboxamide]
- IC50 (read-out: median IC50 (cell viability)): 394 nM
- IC50 (three of seven samples with the 17p deletion that had significant activity, read-out: IC50 (cell viability)): 37.5 nM
- cell viability (samples from relapsed patients and with poor risk features (ZAP70 and/or CD38 expression, 11q deletion, unmutated IgVh)): significant decreases in cell viability
